Results as given in patent US6787530B1, “Use of pregnane-diones as analgesic agents” (priority 1996, dated 2004).
Entries after “also recorded” stand apart in the source; their conditions may differ.

What was measured:
[1] = test system: mice; experiment: PAN LABS toxicity test; format: in vivo, mouse
Method: The experiments from our laboratory are supported by observations by an independent body, PAN LABS. A sample of alphadolone used in the above experiments in rats in our laboratory was sent to a commercial drug-testing house, called PAN LABS. They gave the drug to a number of preparations to look for toxicity effects as well as pharmacological effect. In one toxicity test performed at PAN LABS, doses of up to 300 mg per kg of alphadolone was given to mice.

[2] = test system: patients scheduled for knee reconstruction surgery; experiment: Phase 1 study of oral alphadolone: side effects (sedation, nausea, respiratory depression, disorientation); format: in vivo, human
Method: The study consisted of two phases. The first phase was a dose escalation study. At any time during this phase as well as the second phase, if the patient was randomised to receive placebo then a capsule containing lactose was administered orally at the time of medication. If the patient was randomised to receive alphadolone then the first patient so randomised received 25 mg alphadolone acetate orally. The patient was monitored for efficacy of the medication and side effects. If there were no unacceptable side effects such as respiratory depression or severe sedation or disorientation then the next patient randomised to receive the active treatment received a higher dose. The dose escalation planned was in the order, 25, 50, 100, 250, 500 and 1000 mg. The original plan was to continue dose escalation until unacceptable side effects occurred and then to reduce the dose to go onto the next, second, phase of the study, a double-blind comparison of the dose just below the high dose that produced unacceptable side effects compared with placebo. However, the view of the Ethics Committee was that this was more appropriate to a drug company sponsored trial and they ordered that the trial should switch from the dose escalation phase to the comparison phase when there was clear evidence of efficacy.
No premedication was given. The patients were taken to the operating theatre and subjected to a standardised anaesthetic regime that consisted of a propofol induction followed by a propofol infusion and the muscle relaxant of the anaesthetist's preference The trachea was intubated and lungs ventilated with a mixture of nitrous oxide and oxygen. Morphine 1-2 mg intravenously was given as indicated by normal signs of depth of anaesthesia. The amount of morphine used in the operating theatre was recorded in the case record form. After the end of surgery, the muscle relaxant was reversed with atropine and neostigmine and the patient sent to recovery. In the recovery ward the patient was reintroduced to the patient controlled analgesia machine containing morphine to deliver a dose of 1 mg increments with a lock out time of 5 minutes. The patient spent approximately half an hour in recovery ward and was then sent to the ward. The following observations and measurements were made one hour before, half an hour before, and just before giving the test medication (placebo or alphadolone) orally with 100 ml of water. The observations were continued every half hour thereafter until six hours after the capsule had been given:
Sedation on a four point score none, mild, moderate, unseasonable;
Nausea score rating none, mild, moderate, severe vomiting;
Respiratory depression scores as
none—respiratory rate greater than 10 oxygen saturation greater than 95%
mild—respiratory rate great than 6 and less than 10 oxygen saturation greater than 95%
moderate—respiratory rate less than 6 but oxygen saturation greater than 95%
unreasonable—respiratory rate less than 6 and/or oxygen saturation less than 95%
Light-headedness scored from none (no dizziness), mild (light dizziness but no nystagmus), moderate (feels dizzy and has nystagmus), severe (very dizzy with nausea);
Slurred speech scored as none, mild, moderate, severe;
Presence of disorientation;
Gaze evoked nystagmus scored as none, mild (1-2 jerks), moderate (constant slow jerks), severe (fast jerks and feeling dizzy);
Lack of co-ordination with two tests (a) close eyes touch nose with finger (b) touch 1, 2, 3, 4 fingers in turn with thumb; classified as none (both tests accomplished), mild (both tests accomplished but slowly), moderate (one test achieved after two attempts), severe (failed both tests after two attempts at each).
The total number of 0's, 1's, 2's, 3's and 4's recorded during the six hours after capsule administration were totalled for the five placebo treated and seven alphadolone treated patients and entered into a contingency table (table 2).

[3] = test system: rats; experiment: Sedation scoring (righting reflex, locomotion) after intravenous injection; format: in vivo, rat
Source text: It is generally accepted in the literature that both alphaxalone and alphadolone are intravenous anaesthetics, i.e. when they are given intravenously, they produce sedation and unconsciousness to a level sufficient for surgery. […] Such data, although alluded to in the literature, is not stated clearly with scientific evidence. Thus, we performed the experiments described in Example 2. Rats were given an intravenous injection of alphadolone. All of the rats became unconscious and surgically anaesthetised within 5 seconds of the intravenous injection. […] Thus, it can be concluded that intravenous injection of alphadolone produces unconsciousness.
Four rats (wt 100 g) were given 0.25 ml injections of alphadolone solution (10 mg/ml; dissolved in 10% Cremophor EL), into the lateral tail vein. A stopwatch was used to time the following scoring of sedation every 15 seconds:
1—righting reflex but no spontaneous locomotion
2—spontaneous locomotion but uncoordinated
3—normal locomotion and exploratory behaviour: full recovery
They all recovered fully within 90 seconds of the drug administration.

[4] = six hours after capsule, 100, 250 and 500 mg orally, n = 7

SMILES: CC(=O)OCC(=O)[C@H]1CC[C@H]2[C@@H]3CC[C@H]4C[C@H](O)CC[C@]4(C)[C@H]3C(=O)C[C@]12C [alphadolone, 21-acetoxy-3alpha-hydroxy-5alpha-pregnane-11,20-dione]
- grip strength ([1]; 300 mg/kg, mice): mild decrease in grip strength; also recorded: slight decrease in grip strength
- anaesthesia ([1]; doses of up to 300 mg per kg given to mice): did not produce anaesthesia
- side effects: sedation, nausea, disorientation, respiratory depression ([2]; dose escalation, 25 to 500 mg orally, humans): No sedation, nausea or disorientation or respiratory depression; also recorded: well tolerated up to a dose of 500 mg orally; also recorded: no sedation or disorientation whatsoever
- nausea score and sedation score compared with placebo (chi-square) ([2]; n = 7 vs placebo n = 5, P=0.9459 nausea, P=0.8661 sedation): no significant difference
- Nausea score 0 (none), number of scores [2, 4]: 72
- Nausea score 1 (mild), number of scores [2, 4]: 10
- Nausea score 2 (moderate), number of scores [2, 4]: 1
- Sedation score 0 (none), number of scores [2, 4]: 20
- Sedation score 1 (mild), number of scores [2, 4]: 48
- Sedation score 2 (moderate), number of scores [2, 4]: 15
- righting reflex / sedation ([3]; 25 mg/kg intravenous (lateral tail vein), 10% Cremophor EL, four rats): lost the righting reflex and were heavily sedated
- time to full recovery after drug administration ([3]; 25 mg/kg intravenous, four rats): ≤ 90 s
- time to unconsciousness and surgical anaesthesia after intravenous injection ([3]; intravenous injection, rats): ≤ 5 s
